Experimental data reported in PubChem BioAssay (NCI).
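Exposure lasted 48 hours, with cells grown in 96-well plates and compounds tested at five concentrations. At the TGI there is no net growth.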

Columns and labels:
Assay in all cases: NCI-60 cell line screen, 48 h
[1] = tested on: HOP-62 NSCLC
[2] = tested on: MDA-MB-231 breast
[3] = tested on: HCT-116 colon
[4] = tested on: U251 CNS
[5] = tested on: MOLT-4 leukemia
[6] = tested on: RXF 393 renal
[7] = tested on: CAKI-1 renal
[8] = tested on: DU-145 prostate
[9] = tested on: SN12C renal
[10] = tested on: LOX IMVI melanoma
[11] = tested on: HL-60(TB) leukemia
[12] = tested on: HCC-2998 colon
[13] = tested on: SK-MEL-2 melanoma
[14] = tested on: A498 renal
[15] = tested on: OVCAR-5 ovarian
[16] = tested on: SF-295 CNS
[17] = tested on: TK-10 renal
[18] = tested on: K-562 leukemia
[19] = tested on: SNB-19 CNS
[20] = tested on: NCI-H226 lung
[21] = tested on: NCI/ADR-RES ovarian
[22] = tested on: NCI-H460 lung
[23] = tested on: RPMI-8226 leukemia
[24] = tested on: MDA-MB-435
[25] = tested on: MDA-N
[26] = tested on: PC-3 prostate
[27] = tested on: SNB-75 CNS
[28] = tested on: SR leukemia
[29] = tested on: SW-620 colon
[30] = tested on: CCRF-CEM leukemia
[31] = tested on: KM12 colon
[32] = tested on: ACHN renal
[33] = tested on: HS 578T breast
[34] = tested on: NCI-H23 lung
[35] = tested on: OVCAR-3 ovarian
[36] = tested on: SK-MEL-28 melanoma
[37] = tested on: A549 NSCLC
[38] = tested on: 786-0 renal
[39] = tested on: SF-268 CNS
[40] = tested on: SK-OV-3 ovarian
[41] = tested on: HOP-92 NSCLC
[42] = tested on: OVCAR-4 ovarian
[43] = tested on: MCF7 breast
[44] = tested on: T-47D breast
[45] = tested on: HT29 colon
[46] = tested on: MALME-3M melanoma
[47] = tested on: SK-MEL-5 melanoma
[48] = tested on: IGROV1 ovarian
[49] = tested on: UACC-62 melanoma
[50] = tested on: OVCAR-8 ovarian
[51] = tested on: M14 melanoma
[52] = tested on: BT-549 breast
[53] = tested on: UACC-257 melanoma
[54] = tested on: UO-31 renal
[55] = tested on: COLO 205 colon
[56] = tested on: HCT-15 colon
[57] = tested on: SF-539 CNS
[58] = tested on: EKVX NSCLC
[59] = tested on: NCI-H522 lung

O=C(/C=C/c1ccc(OCc2ccccc2)cc1)NCc1ccc(C(=O)NCCc2c[nH]c3ccccc23)cc1
TGI [1]: 15.6 µM | TGI [2]: 61.1 µM | TGI [3]: > 100 µM | TGI [4]: 20.5 µM | TGI [5]: > 100 µM | TGI [6]: 24.9 µM | TGI [7]: 45.4 µM | TGI [8]: > 100 µM | TGI [9]: > 100 µM | TGI [10]: > 100 µM | TGI [11]: > 100 µM | TGI [12]: > 100 µM | TGI [13]: > 82.6 µM | TGI [14]: > 100 µM | TGI [15]: 69.4 µM | TGI [16]: 17.2 µM | TGI [17]: > 43 µM | TGI [18]: > 100 µM | TGI [19]: 29.9 µM | TGI [20]: > 58.8 µM | TGI [21]: > 100 µM | TGI [22]: > 100 µM | TGI [23]: > 100 µM | TGI [24]: > 100 µM | TGI [25]: > 100 µM | TGI [26]: 55 µM | TGI [27]: 38.1 µM | TGI [28]: > 55.3 µM | TGI [29]: > 100 µM | TGI [30]: > 100 µM | TGI [31]: > 100 µM | TGI [32]: > 100 µM | TGI [33]: 29.9 µM | TGI [34]: 38.8 µM | TGI [35]: > 100 µM | TGI [36]: > 100 µM | TGI [37]: 87.6 µM | TGI [38]: 16.7 µM | TGI [39]: 52.4 µM | TGI [40]: 44.4 µM | TGI [41]: 61.1 µM | TGI [42]: > 48.4 µM | TGI [43]: > 100 µM | TGI [44]: > 100 µM | TGI [45]: > 56.6 µM | TGI [46]: 43.3 µM | TGI [47]: > 58.6 µM | TGI [48]: 56.1 µM | TGI [49]: 51.7 µM | TGI [50]: 31.7 µM | TGI [51]: > 62 µM | TGI [52]: > 100 µM | TGI [53]: > 100 µM | TGI [54]: > 100 µM | TGI [55]: > 100 µM | TGI [56]: > 100 µM | TGI [57]: 11.2 µM | TGI [58]: > 100 µM

OC(c1ccc(Cl)cc1)(c1ccc(Cl)cc1)c1cncnc1
TGI [1]: 35.3 µM | TGI [2]: 33.9 µM | TGI [3]: 28.6 µM | TGI [4]: 37.8 µM | TGI [5]: 52.3 µM | TGI [6]: 28.4 µM | TGI [7]: 36.2 µM | TGI [8]: 59.8 µM | TGI [9]: 80.3 µM | TGI [10]: > 100 µM | TGI [13]: 32 µM | TGI [14]: 47.6 µM | TGI [15]: 36.6 µM | TGI [16]: 37.2 µM | TGI [17]: 57.5 µM | TGI [18]: 69.8 µM | TGI [19]: 48.8 µM | TGI [20]: 42.2 µM | TGI [21]: 74.8 µM | TGI [22]: 36.4 µM | TGI [23]: 85.3 µM | TGI [24]: 36.7 µM | TGI [25]: 37.7 µM | TGI [26]: 31.7 µM | TGI [27]: 52.7 µM | TGI [28]: > 100 µM | TGI [29]: 55.4 µM | TGI [30]: 54.1 µM | TGI [31]: 31.9 µM | TGI [33]: 66.6 µM | TGI [34]: 61.6 µM | TGI [35]: 32.2 µM | TGI [36]: 38 µM | TGI [41]: 31.2 µM | TGI [42]: 41.5 µM | TGI [43]: 47.8 µM | TGI [44]: > 100 µM | TGI [45]: 32.1 µM | TGI [46]: > 100 µM | TGI [47]: 27 µM | TGI [49]: 30.1 µM | TGI [50]: 54.8 µM | TGI [51]: 32.8 µM | TGI [52]: 42 µM | TGI [53]: 40.5 µM | TGI [54]: 31.3 µM | TGI [55]: 35.2 µM | TGI [56]: 39.8 µM

COc1ccc(C2C(C#N)=C(S)N(C3OC(COC(C)=O)C(OC(C)=O)C(OC(C)=O)C3OC(C)=O)C(C)=C2C(C)=O)cc1 (stereo not drawn)
TGI [1]: > 100 µM | TGI [2]: > 100 µM | TGI [3]: > 100 µM | TGI [4]: > 100 µM | TGI [5]: > 100 µM | TGI [6]: > 100 µM | TGI [7]: > 100 µM | TGI [8]: > 100 µM | TGI [9]: > 100 µM | TGI [10]: > 100 µM | TGI [11]: > 100 µM | TGI [12]: > 100 µM | TGI [13]: > 100 µM | TGI [15]: > 100 µM | TGI [16]: > 100 µM | TGI [17]: > 100 µM | TGI [18]: > 100 µM | TGI [19]: > 100 µM | TGI [21]: > 100 µM | TGI [22]: > 100 µM | TGI [23]: > 100 µM | TGI [24]: > 100 µM | TGI [25]: > 100 µM | TGI [26]: > 100 µM | TGI [27]: > 100 µM | TGI [28]: > 100 µM | TGI [29]: > 100 µM | TGI [30]: > 100 µM | TGI [31]: > 100 µM | TGI [32]: > 100 µM | TGI [33]: > 100 µM | TGI [34]: > 100 µM | TGI [35]: > 100 µM | TGI [36]: > 100 µM | TGI [37]: > 100 µM | TGI [38]: > 100 µM | TGI [39]: > 100 µM | TGI [40]: > 100 µM | TGI [41]: > 100 µM | TGI [42]: > 100 µM | TGI [43]: > 100 µM | TGI [44]: 83.1 µM | TGI [45]: > 100 µM | TGI [46]: > 100 µM | TGI [47]: > 100 µM | TGI [48]: > 100 µM | TGI [49]: > 100 µM | TGI [51]: > 100 µM | TGI [52]: > 100 µM | TGI [53]: > 100 µM | TGI [54]: > 100 µM | TGI [55]: > 100 µM | TGI [56]: > 100 µM | TGI [57]: > 100 µM

O=C(O)CCO/N=C1/C(c2c(O)[nH]c3ccccc23)=Nc2ccccc21
TGI [1]: > 100 µM | TGI [2]: > 100 µM | TGI [3]: 34.8 µM | TGI [4]: > 100 µM | TGI [5]: 77.2 µM | TGI [6]: 17.5 µM | TGI [7]: 63.8 µM | TGI [8]: 75.1 µM | TGI [9]: > 100 µM | TGI [10]: 44.8 µM | TGI [11]: 62.4 µM | TGI [12]: 35.7 µM | TGI [13]: 37.7 µM | TGI [14]: 74.2 µM | TGI [15]: > 100 µM | TGI [16]: > 100 µM | TGI [17]: > 100 µM | TGI [18]: > 100 µM | TGI [19]: > 100 µM | TGI [21]: > 100 µM | TGI [22]: > 100 µM | TGI [23]: > 100 µM | TGI [24]: > 100 µM | TGI [25]: > 100 µM | TGI [26]: > 100 µM | TGI [27]: 53.5 µM | TGI [28]: 57.9 µM | TGI [29]: > 100 µM | TGI [30]: 40.3 µM | TGI [31]: 38.9 µM | TGI [32]: > 100 µM | TGI [33]: > 100 µM | TGI [34]: 66.5 µM | TGI [35]: 43.9 µM | TGI [36]: > 100 µM | TGI [37]: > 100 µM | TGI [38]: 94.8 µM | TGI [39]: > 100 µM | TGI [40]: 21.1 µM | TGI [41]: 96.9 µM | TGI [42]: > 100 µM | TGI [43]: > 100 µM | TGI [44]: 72.6 µM | TGI [45]: 79.4 µM | TGI [46]: > 100 µM | TGI [59]: > 100 µM | TGI [47]: 27.3 µM | TGI [48]: > 100 µM | TGI [49]: 46.9 µM | TGI [50]: > 100 µM | TGI [51]: > 100 µM | TGI [52]: > 100 µM | TGI [53]: > 100 µM | TGI [54]: 38.3 µM | TGI [55]: 35.1 µM | TGI [56]: 42.3 µM | TGI [57]: > 100 µM | TGI [58]: 47.9 µM
